In one series the test system is HEI-OC1 cells. As to the kind of experiment: release of mitochondrial Cytc in HEI-OC1 cells with CisPt (flow cytometry). The following applies: HEI-OC1 cells, CisPt alone vs pre-incubated with LPT99, flow cytometry. The class given is cell-based. On the procedure: Flow cytometry was also used to characterize the effect of LPT99 in the release of mitochondrial Cytc in HEI-OC1 cells in vitro with CisPt prevention.
The effect of LPT99 on proliferation of non-apoptotic cells was studied. A549 cells were cultured in the presence of LPT99 for up to 6 days; the cell number was monitored by flow cytometry, and doubling time was calculated.

In another series the test system is rats. As to the kind of experiment: GLP auditory safety study after single IT administration. In kind it is in vivo, rat. On the procedure: Gross observations were recorded, and selected organs were weighed.

`N.N.[Cl][Pt][Cl]` [CisPt, cisplatin, reference compound]: the “release of mitochondrial Cytc” value in the series with HEI-OC1 cells is reported as 28%±6.6%.
For the compound gentamicin [reference compound], in the series on rats (male rats, 400 mg/mL gentamicin, Day 14, vs saline controls), the weight-normalized heart weights entry is reported as “statistically significant (p≤0.05) increased weight-normalized heart weights”. Also, in the series with rats (rat, single IT, Days 1, 7, 14, vs control), the “otoscopic examination of the tympanic membranes (erythema, edema, wounds)” value was “increases in otoscopic scores”. In the series with rats (rat, single bilateral IT 30 μL per ear, 14-day study), the “mortalities, clinical abnormalities, body weight, food intake, clinical pathologies” value was “no LPT99- or gentamicin-related mortalities”.
